Experimental data as given in ChEMBL document CHEMBL3758152, “11-Hydroxylation of Protoberberine by the Novel Berberine-Utilizing Aerobic Bacterium Sphingobium sp. Strain BD3100” (2015).
The source made the active and inactive calls. No cut-off for these calls is given here.

Tests used:
Staphylococcus aureus [1] = test: Antibacterial activity against Staphylococcus aureus H209P at 250 nmol/disk after 12 hrs by paper disk method; assay type: functional, organism-based
Staphylococcus aureus [2] = test: Antibacterial activity against Staphylococcus aureus H209P at 125 nmol/disk after 12 hrs by paper disk method; assay type: functional

Compound	Activity (Staphylococcus aureus [1])	diameter of the inhibition zone (DIZ) (Staphylococcus aureus [2])
COc1cc2c(cc1OC)-c1cc3cc(O)c(OC)c(OC)c3c[n+]1CC2	inactive	–
COc1ccc2cc3[n+](cc2c1OC)CCc1cc2c(cc1-3)OCO2 [BERBERINE]	–	12 mm
COc1c(O)cc2cc3[n+](cc2c1OC)CCc1cc(O)c(O)cc1-3	inactive	–
COc1c(O)cc2cc3[n+](cc2c1OC)CCc1cc2c(cc1-3)OCO2	inactive	–
